Measured values as given in patent publication US11345711B2, “8,9-dihydroimidazo[1,2-a]pyrimido[5,4-e]pyrimidin-5(6H)-ones” (IMPACT THERAPEUTICS (SHANGHAI), INC, priority 2016, dated 2022).
Where two headings read alike, the source gives them in different places.

Legend:
LoVo cells = assay: MTT based cell viability assay on LoVo cells; settings: for IC50: Homo sapiens, LoVo, 72 h, 3 d, read-out: IC50, growth inhibition of LoVo cells
Method in brief: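 Inhibition of LoVo proliferation was derived as IC50 from a sigmoidal dose-response fit of cell survival. Readout was MTT (0.5 mg/mL, 4 h) with absorbance at 552/630/690 nm, after 3-day treatment at 37 °C. Eight-point series from 10 μM to 0.01 μM, DMSO control, 1% DMSO final.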

NCI-H1299 cells = assay: MTT based cell viability assay on NCI-H1299 cells; settings: for IC50: read-out: IC50, growth inhibition of NCI-H1299 cells
Method in brief: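 Viability read-out was MTT reduction (0.5 mg/mL, 4 h, absorbance 552/630/690 nm) after 3-day compound exposure at 37 °C of NCI-H1299 cells seeded at 1000 per well. Dilutions spanned 10 μM–0.01 μM in DMSO, final DMSO 1‰. Survival-versus-concentration curves were fitted sigmoidally to give IC50.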

Wee1 (h) = Wee1 (h) (Homo sapiens, UniProt P30291); assay: Wee1 kinase (h) detection method, [γ-33P]-ATP filter assay; type: biochemical
[1] = Homo sapiens, NCI-H1299, NCI-H1299 cells

Chain of Wee1 (h) (P30291 whole entry): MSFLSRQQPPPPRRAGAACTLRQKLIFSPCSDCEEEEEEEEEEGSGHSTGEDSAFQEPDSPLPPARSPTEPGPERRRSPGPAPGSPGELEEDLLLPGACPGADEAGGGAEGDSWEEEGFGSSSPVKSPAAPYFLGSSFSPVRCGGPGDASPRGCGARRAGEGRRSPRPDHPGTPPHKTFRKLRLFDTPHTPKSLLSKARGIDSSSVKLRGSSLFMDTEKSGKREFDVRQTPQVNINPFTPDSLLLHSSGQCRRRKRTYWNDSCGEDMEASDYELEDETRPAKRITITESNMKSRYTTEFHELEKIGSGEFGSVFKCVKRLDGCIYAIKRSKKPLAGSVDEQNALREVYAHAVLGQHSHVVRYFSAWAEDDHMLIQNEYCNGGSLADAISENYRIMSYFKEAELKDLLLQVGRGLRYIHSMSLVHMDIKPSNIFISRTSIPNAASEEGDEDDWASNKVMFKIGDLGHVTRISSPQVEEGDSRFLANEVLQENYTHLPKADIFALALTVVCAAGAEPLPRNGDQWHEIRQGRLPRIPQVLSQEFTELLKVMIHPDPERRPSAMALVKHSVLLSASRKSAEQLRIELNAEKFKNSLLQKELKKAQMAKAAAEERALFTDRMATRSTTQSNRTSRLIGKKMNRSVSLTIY

Structure (SMILES)	IC50 (LoVo cells) [nM]	IC50 (NCI-H1299 cells; [1]) [nM]	Inh. (%) of Wee1 kinase enzyme activity (Wee1 (h); C 0.01 μm compound) [%]	Inh. (%) of Wee1 kinase enzyme activity (Wee1 (h); C 0.1 μm compound) [%]	Inh. (%) of Wee1 kinase enzyme activity (Wee1 (h); C 1 μm compound) [%]	IC50 (NCI-H1299 cells; Homo sapiens, NCI-H1299 cells) [nM]	inhibition at 0.01 µM (Wee1 (h); at 0.01 μM, read-out: inhibitory rate on Wee1 enzyme activity) [%]	IC50 (NCI-H1299 cells; NCI-H1299 cells) [nM]	inhibitory effect on the growth of LoVo cells compared with AZD1775 (LoVo cells)	inhibitory effect on the growth of NCI-H1299 cells compared with AZD1775 (NCI-H1299 cells)
CN(C)CCNc1ccc(Nc2ncc3c(n2)N2CCN=C2N(c2c(F)cccc2Cl)C3=O)cc1 [Example 108, 6-(2-Chloro-6-fluorophenyl)-2-((4-((2-(dimethylamino)ethyl)amino)phenyl)amino)-8,9-dihydroimidazo[1,2-a]pyrimido[5,4-e]pyrimidin-5(6H)-one]	1500	899	–	–	96	–	–	–	–	–
CN1CCN(c2ccc(Nc3ncc4c(n3)N3CCN=C3N(c3ccccn3)C4=O)cc2)CC1 [Example 97, 6-(Pyridin-2-yl)-2-((4-(4-methylpiperazin-1-yl)phenyl)amino)-8,9-dihydroimidazo[1,2-a]pyrimido[5,4-e]pyrimidin-5(6H)-one]	> 100000	–	–	–	9	> 10000	–	–	–	–
CN1CCN(Cc2ccc(Nc3ncc4c(n3)N3CCN=C3N(c3c(F)cccc3Cl)C4=O)cc2)CC1 [Example 104, 6-(2-Chloro-6-fluorophenyl)-2-((4-((4-methylpiperazin-1-yl)methyl)phenyl)amino)-8,9-dihydroimidazo[1,2-a]pyrimido[5,4-e]pyrimidin-5(6H)-one]	460	–	–	–	93	1050	–	–	–	–
Cc1cccc(F)c1N1C(=O)c2cnc(Nc3ccc(N4CCN(C)CC4)c(Cl)c3)nc2N2CCN=C21 [Example 168, 6-(2-Fluoro-6-methylphenyl)-2-((3-chloro-4-(4-methylpiperazin-1-yl)phenyl)amino)-8,9-dihydroimidazo[1,2-a]pyrimido[5,4-e]pyrimidin-5(6H)-one]	296	–	–	–	89	599	–	–	–	–
C[C@@H]1CN(c2ccc(Nc3ncc4c(n3)N3CCN=C3N(c3c(F)cccc3Cl)C4=O)c(Cl)c2)C[C@H](C)N1C [Example 39, 6-(2-Chloro-6-fluorophenyl)-2-((2-chloro-4-((3S,5R)-3,4,5-trimethylpiperazin-1-yl)phenyl)amino)-8,9-dihydroimidazo[1,2-a]pyrimido[5,4-e]pyrimidin-5(6H)-one]	> 100000	–	–	–	28	> 10000	–	–	–	–
CN1CCn2nc(Nc3ncc4c(n3)N3CCN=C3N(c3c(F)cccc3Cl)C4=O)cc2C1 [Example 59, 6-(2-Chloro-6-fluorophenyl)-2-((5-methyl-4,5,6,7-tetrahydropyrazolo[1,5-a]pyrazin-2-yl)amino)-8,9-dihydroimidazo[1,2-a]pyrimido[5,4-e]pyrimidin-5(6H)-one]	> 100000	–	–	–	49	> 10000	–	–	–	–

These reach a lower IC50 (LoVo cells). Values come first.

IC50 (LoVo cells) [nM]	IC50 (NCI-H1299 cells; [1]) [nM]	Inh. (%) of Wee1 kinase enzyme activity (Wee1 (h); C 0.01 μm compound) [%]	Inh. (%) of Wee1 kinase enzyme activity (Wee1 (h); C 0.1 μm compound) [%]	Inh. (%) of Wee1 kinase enzyme activity (Wee1 (h); C 1 μm compound) [%]	IC50 (NCI-H1299 cells; Homo sapiens, NCI-H1299 cells) [nM]	inhibition at 0.01 µM (Wee1 (h); at 0.01 μM, read-out: inhibitory rate on Wee1 enzyme activity) [%]	IC50 (NCI-H1299 cells; NCI-H1299 cells) [nM]	Structure (SMILES)	inhibitory effect on the growth of LoVo cells compared with AZD1775 (LoVo cells)	inhibitory effect on the growth of NCI-H1299 cells compared with AZD1775 (NCI-H1299 cells)
63.3	174	25	72	96	–	–	–	CN1CCN(c2c(F)cc(Nc3ncc4c(n3)N3CCN=C3N(c3c(Cl)cccc3Cl)C4=O)cc2Br)CC1 [Example 154, 6-(2,6-Dichlorophenyl)-2-((3-bromo-5-fluoro-4-(4-methylpiperazin-1-yl)phenyl)amino)-8,9-dihydroimidazo[1,2-a]pyrimido[5,4-e]pyrimidin-5(6H)-one]	–	–
40.2	161	24	80	100	–	–	–	Cc1cc(Nc2ncc3c(n2)N2CCN=C2N(c2c(Cl)cccc2Cl)C3=O)ccc1N1CCN(C)CC1 [Example 75, 6-(2,6-Dichlorophenyl)-2-((3-methyl-4-(4-methylpiperazin-1-yl)phenyl)amino)-8,9-dihydroimidazo[1,2-a]pyrimido[5,4-e]pyrimidin-5(6H)-one]	stronger inhibitory effect on the growth of LoVo cells than AZD1775	stronger inhibitory effect on the growth of NCI-H1299 cells than AZD1775
158	–	15	71	91	992	–	–	Cc1cc(Nc2ncc3c(n2)N2CCN=C2N(c2c(F)cccc2F)C3=O)ccc1N1CCN(C)CC1 [Example 60, 6-(2,6-Difluorophenyl)-2-((3-methyl-4-(4-methylpiperazin-1-yl)phenyl)amino)-8,9-dihydroimidazo[1,2-a]pyrimido[5,4-e]pyrimidin-5(6H)-one]	–	–
62.7	107	21	82	98	–	–	–	Cc1cc(Nc2ncc3c(n2)N2CCN=C2N(c2c(Cl)cccc2Br)C3=O)cc(Br)c1N1CCN(C)CC1 [Example 167, 6-(2-Bromo-6-chlorophenyl)-2-((3-bromo-5-methyl-4-(4-methylpiperazin-1-yl)phenyl)amino)-8,9-dihydroimidazo[1,2-a]pyrimido[5,4-e]pyrimidin-5(6H)-one]	–	–
59.2	–	22	75	97	328	–	–	C[C@@H]1CN(c2ccc(Nc3ncc4c(n3)N3CCN=C3N(c3c(Cl)cccc3Cl)C4=O)cc2Cl)C[C@H](C)N1C [Example 72, 6-(2,6-Dichlorophenyl)-2-((3-chloro-4-((3S,5R)-3,4,5-trimethylpiperazin-1-yl)phenyl)amino)-8,9-dihydroimidazo[1,2-a]pyrimido[5,4-e]pyrimidin-5(6H)-one]	–	–
38.6	–	–	–	91	222	–	–	COc1cc(Nc2ncc3c(n2)N2CCN=C2N(c2c(Cl)cccc2Cl)C3=O)cc(Br)c1N1CCN(C)CC1 [Example 157, 6-(2,6-Dichlorophenyl)-2-((3-bromo-5-methoxy-4-(4-methylpiperazin-1-yl)phenyl)amino)-8,9-dihydroimidazo[1,2-a]pyrimido[5,4-e]pyrimidin-5(6H)-one]	–	–
169	204	55	93	97	–	51	–	CN1CCN(c2ccc(Nc3ncc4c(n3)N3CCN=C3N(c3c(Cl)cccc3Cl)C4=O)cc2)CC1 [Example 4, 6-(2,6-Dichlorophenyl)-2-((4-(4-methylpiperazin-1-yl)phenyl)amino)-8,9-dihydroimidazo[1,2-a]pyrimido[5,4-e]pyrimidin-5(6H)-one]	–	–
44.3	–	36	74	98	–	–	603	CN1CCN(c2ccc(Nc3ncc4c(n3)N3CCN=C3N(c3c(Cl)cccc3Cl)C4=O)cc2Cl)CC1 [Example 71, 2-((3-chloro-4-(4-methylpiperazin-1-yl)phenyl)amino)-6-(2,6-dichlorophenyl)-8,9-dihydroimidazo[1,2-a]pyrimido[5,4-e]pyrimidin-5(6H)-one]	–	–
76.7	–	29	87	100	101	–	–	CN1Cc2cc(Nc3ncc4c(n3)N3CCN=C3N(c3c(Cl)cccc3Cl)C4=O)ccc2C(C)(C)C1 [Example 13, 6-(2,6-Dichlorophenyl)-2-((2,4,4-trimethyl-1,2,3,4-tetrahydroisoquinolin-7-yl)amino)-8,9-dihydroimidazo[1,2-a]pyrimido[5,4-e]pyrimidin-5(6H)-one]	–	–
